# Laboratory results from US11421278B2, “Method to monitor pharmacodynamic responses mediated by in vivo administration of glucocorticoids” (BRISTOL-MYERS SQUIBB COMPANY, priority 2017, dated 2022).
# How the values were obtained:
# [1] = system: peripheral blood mononuclear cells (PBMCs); assay: Gene expression profiling of PBMCs cultured with prednisolone or DMSO (Affymetrix); assay type: cell-based, human; conditions: 1 μM prednisolone, 6 hours
# Protocol: In order to monitor glucocorticoid-dependent responses in peripheral blood, genes modulated by prednisolone in human PBMCs were identified. PBMCs from 10 independent normal healthy volunteer donors were treated with either DMSO control or 1 μM prednisolone for 6 hours.
# Lymphocytes were isolated from the blood of 10 independent donors using Ficoll gradient centrifugation. Cells were cultured at 5 million lymphocytes/well of a 96-well flat-bottom block plate (Qiagen, Hilden, Germany) in 500 μl assay media (RPMI-1640 with GlutaMAX, 10% charcoal-stripped fetal bovine serum; Gibco Laboratories, Gaithersburg, Md., USA). Cells were cultured for 6 hours with either dimethyl sulfoxide (DMSO) vehicle or 1 μM prednisolone. After 6 hours, cells were pelleted and resuspended in 1 ml nucleic acid purification lysis solution (Applied Biosystems, Foster City, Calif., USA) diluted 1:2 with calcium and magnesium-free phosphate-buffered saline (Invitrogen, Carlsbad, Calif., USA). Cells were incubated in lysis buffer for 10 min at room temperature followed by storage at −80° C. RNA was isolated using the Qiagen RNeasy isolation kit according to manufacturer's instructions. […]
# whole blood = assay: Whole blood cultured in vitro, GC gene signature (ssGSEA) score; assay type: cell-based, human
# From the text: Many of these genes were known glucocorticoid-regulated genes (Chinenov Y, et. al., BMC Genomics 2014; 15:656). […] Network analysis of the regulated genes indicated enrichment for immune-response pathways. Single-sample gene set enrichment analysis (ssGSEA) algorithm was used to generate a composite score (or gene signature) for enrichment of these genes in the transcriptomes of individual samples (Barbie D A, et. al. Nature 2009; 462:108-12).
# For profiling of whole blood, anticoagulant citrate dextrose solution A-containing whole blood from 4 normal healthy volunteers was cultured with either DMSO vehicle, 200 nM prednisolone, 1 μM prednisolone, 5 μM prednisolone, 5 μM GR modulators BMS-791826, or 10 μM BMS-776532 for 5 hours, followed by transfer to a PAXgene tube. Total RNA was isolated, and then treated with DNase I and cleaned up using a Qiagen RNeasy MinElute Cleanup Kit. RNA concentrations were determined using NanoDrop (Thermo Fisher Scientific, Waltham, Mass., USA) and RNA quality was evaluated using the Experion electrophoresis system (Bio-Rad Laboratories, Hercules, Calif., USA). All target labeling reagents were purchased from Affymetrix (West Sacramento, Calif., USA).
# Double-stranded cDNAs were synthesized from 1 μg of total RNA through reverse transcription with an oligo-dT primer containing the T7 RNA polymerase promoter and double-strand conversion using the cDNA Synthesis System (Invitrogen, Carlsbad, Calif., USA). Biotin-labeled cRNA was generated from the cDNA and used to probe a Human Genome HT_HG-U133A plate (Affymetrix, Sunnyvale, Calif., USA), consisting of 96 single HG-U133A arrays in a 96-well plate. All cDNA and cRNA target preparation steps were processed on a Caliper GeneChip Array Station from Affymetrix. Array hybridization, washing, and scanning were performed according to the manufacturer's recommendations. […]
# [2] = system: GC gene signature in whole blood; assay: In vivo GC gene signature, Prednisoline in Healthy Male Cohort 2; set-up: species or system human; conditions: normal healthy volunteers, oral, 10 mg prednisolone or 150 or 300 mg BMS-791826, 4 hours post-dosing, versus pre-dose and placebo (FIG. 3A)
# Protocol: (§1) Since the glucocorticoid (GC) signature accurately captured glucocorticoid receptor (GR) agonist activity in vitro, the behavior of the GC gene signature in vivo was tested. Normal healthy volunteers (NHV) were dosed with placebo, 10 mg prednisolone, or 150 or 300 mg GR modulator BMS-791826. Blood was drawn before and 4 hours post-dosing, and RNA was analyzed by Affymetrix gene expression profiling. […] To address the kinetics of the GC gene signature response, whole blood RNA profiles from NHVs who were administered different doses of prednisolone was analyzed. […] For all but the highest dose of prednisolone, GC gene signature scores had returned to baseline levels by 8 hours post-dose. The signature score was at baseline levels in all groups by 48 hours post-dosing.
# To score an individual sample by the enrichment level of GC gene signatures, we adapted the single-sample gene set enrichment analysis (ssGSEA) algorithm (Barbie D A, et. al., Nature 2009; 462:108-12) to generate a composite score, which was implemented using the Gene Set Variation Analysis package in R (version 3.4.0, Hanzelmann S, et. al., BMC Bioinformatics 2013; 14:7). The algorithm was modified so that enrichment scores fell between −1 and 1, representing the lowest to the highest possible rankings of GC genes in the transcriptome. […]
# [3] = system: GC gene signature in whole blood; assay: In vivo GC gene signature kinetics, Prednisoline in Healthy Male Cohort 1; set-up: species or system human
# Protocol: as §1
# To score an individual sample by the enrichment level of GC gene signatures, we adapted the single-sample gene set enrichment analysis (ssGSEA) algorithm (Barbie D A, et. al., Nature 2009; 462:108-12) to generate a composite score, which was implemented using the Gene Set Variation Analysis package in R (version 3.4.0, Hanzelmann S, et. al., BMC Bioinformatics 2013; 14:7). The algorithm was modified so that enrichment scores fell between −1 and 1, representing the lowest to the highest possible rankings of GC genes in the transcriptome.
# Male normal healthy volunteers were randomly assigned (6 participants/group) to receive daily doses of 5, 10, or 30 mg prednisolone for 7 days. Two participants received placebo. PAXgene tubes were collected before dosing and at 2, 4, 8, 48, 144, and 216 hours post-dose.
# [4] = system: glucocorticoid-regulated genes in whole blood; assay: Whole blood induction of single genes, prednisolone versus placebo, Prednisoline in Healthy Male cohort 2; assay type: in vivo, human
# From the text: Further refinement of the 64 member gene signature would facilitate implementation in the clinic. […] The list was further filtered for detectable expression in the abatacept SLE trial. Of the initial 64 genes, 18 (FKBP5, ECHDC3, IL1R2, ZBTB16, IRS2, IRAK3, ACSL1, DUSP1, PHC2, TLR2, TSC22D3, SLA, CRISPLD2, MAN2A2, FAR2, CEBPD, SPTLC2, HSPA6) met these criteria. The top 3 genes (FKBP5, ECHDC3 and IL1R2), top 6 genes (FKBP5, ECHDC3 IL1R2, ZBTB16, IRS2, IRAK3) and top 8 genes (FKBP5, ECHDC3, IL1R2, ZBTB16, IRS2, IRAK3, ACSL1, DUSP1) from the list were then used to calculate ssGSEA scores.
# CEL files from the Affymetrix Array Station were processed and normalized using the Robust Multi-Array Average (RMA) algorithm (Gautier I, et. al., Bioinformatics 2004; 20:307-15) using the “Affy” package in R (version 3.2.1; 16) and Bioconductor (Gentleman R C, et. al. Genome Biol. 2004, 5 (10):R80) with custom CDF files from BrainArray (version 18.0.0; Dai M, et. al., Nucleic Acids Res 2005; 33:e175). Differential gene expression analysis was run to compare gene expression levels in prednisolone-treated versus control samples, using a moderated t-test (Ritchie M E, et. al., Nucleic Acids Res 2015; 43:e47) in Array Studio (OmicSoft, Cary, N.C., USA). P values were adjusted using the multiple test correction method which is also called false discovery rate (FDR, Benjamini Y, et. al., J. Royal Statistical Soc., Series B 1995; 57:289).
# Male normal healthy volunteers were randomly assigned to receive either a placebo of polyethylene glycol (PEG)-400 solution (4 participants); a single daily oral dose of GR modulator BMS-791826 (150 or 300 mg) as a PEG-400 solution (6 participants/dose); or a single daily dose of 10 mg prednisolone (4 participants) for 3 consecutive days. PAXgene tubes were collected before dosing and at 4 hours post-dose on day 1.
# [5] = system: GC gene signature in whole blood; assay: GC gene signature in baseline samples of the abatacept SLE phase II trial by reported prednisone dose; assay type: in vivo, human; conditions: SLE patients, dose high (>30 mg), medium (10-30 mg), low (<10 mg) (FIG. 4B)
# Protocol: To determine if the glucocorticoid signature could differentiate between patients based on treatment status, expression of the signature in cross-sectional cohorts of patients with SLE or RA were analyzed. Relative to either normal healthy controls or patients treated with other standard-of-care medications, the patients with SLE or RA who were prescribed glucocorticoids had elevated signature scores (FIG. 4A). While the glucocorticoid signatures were elevated, there was significant inter-patient variability in the signature scores. Baseline samples from a phase II study of abatacept in SLE was analyzed (Fleishaker D L, et. al., BMC Musculoskelet Disord 2016; 17:29) for expression of the glucocorticoid gene signature (FIG. 4B). […] However, there was again significant inter-patient variability in glucocorticoid gene signature scores in all groups. This could reflect steroid resistance in some patients or compliance issues with some patients.
# Baseline PAXgene collections and complete blood counts were obtained from 144 adults with SLE meeting the criteria of a British Isles Lupus Assessment Group (BILAG) score of A or B. The population at baseline consisted of 53% of patients with polyarthritis, 35% with discoid lupus, and 12% with serositis. […]
smiles,measurement,setting,value
C[C@]12C=CC(=O)C=C1CC[C@@H]1[C@@H]2[C@@H](O)C[C@@]2(C)[C@H]1CC[C@]2(O)C(=O)CO [prednisolone],fold change of upregulated genes versus vehicle,"[1]; FDR-adjusted P ≤0.05, genes of FIG. 1A",> 2 fold
same,fold change of downregulated genes versus vehicle,"[1]; FDR-adjusted P ≤0.05, genes of FIG. 1B",> 2 fold
same,"glucocorticoid gene signature score, rank order","whole blood; 5 μM prednisolone, 5 μM BMS-791826, 10 μM BMS-776532, 5 hours (FIG. 2E)",prednisolone>BMS-791826>BMS-776532
same,ssGSEA score for the upregulated genes,"whole blood; whole blood, different concentrations of prednisolone, 5 hours (FIG. 1C)",increased dose dependently
same,expression of the downregulated genes (ssGSEA score),"whole blood; whole blood, different concentrations of prednisolone, 5 hours (FIG. 1D)",decreased in a dose-dependent manner
same,GC signature score,[2],significantly elevated
same,time of peak of GC gene signature score post-dose,"[3]; 5, 10 or 30 mg prednisolone",4 h
same,time by which GC gene signature scores had returned to baseline,[3]; all but the highest dose of prednisolone,≤ 8 h
same,time by which signature score was at baseline levels,[3]; all groups,≤ 48 h
same,"GC gene signature score, dose dependence","[3]; normal healthy volunteers, 5, 10 or 30 mg prednisolone (FIG. 3B)",increased dose dependently
same,logFC ACSL1,[4],1.43
same,logFC CEBPD,[4],0.86
same,logFC CRISPLD2,[4],0.94
same,logFC DUSP1,[4],1.37
same,logFC ECHDC3,[4],2.34
same,logFC FAR2,[4],0.88
same,logFC FKBP5,[4],2.85
same,logFC HSPA6,[4],0.67
same,logFC IRAK3,[4],1.45
same,logFC IRS2,[4],1.75
same,logFC MAN2A2,[4],0.91
same,logFC PHC2,[4],1.15
same,logFC SLA,[4],0.98
same,logFC SPTLC2,[4],0.75
same,logFC TLR2,[4],1.11
same,logFC TSC22D3,[4],1.08
same,logFC ZBTB16,[4],2.04
C[C@]12C=CC(=O)C=C1CC[C@@H]1[C@@H]2C(=O)C[C@@]2(C)[C@H]1CC[C@]2(O)C(=O)CO [prednisone],glucocorticoid gene signature scores versus reported dose,[5],generally aligned well with reported prednisone dose
